In brackets after ≈: the same amount, converted by molar mass. Where two headings read alike, the source gives them in different places.
Legend:
[1] = test system: HLMEC (normal human epithelium); assay: Cytotoxic activity against normal cells, SRB test; type: cell-based; settings: 72-hour culture
Experimental: (§1) 4.3. Cytotoxic activity evaluation against normal cell lines with diverse tissue origins using the SRB test:
(§2) • a) normal mouse fibroblasts (BALB/3T3), • b) normal mammary gland cells (MCF-10), • c) normal human epithelium (HLMEC)
(§3) The stock solution of the tested compound with concentration of 20 mg/ml was prepared day before the analysis by dissolving the preparation in DMSO, followed by storage in -20°C. After 24 hours the preparation was thawed and diluted with the culture medium. The compounds were tested in concentrations of 100, 10, 1, 0.1 0.01 µg/ml.
(§4) The following human cancer cell lines were used in the study: HL-60 (promyelocytic leukemia), HL-60/MX2 (promyelocytic leukemia, line resistant to mitoxantrone), MCF7 (mammary gland cancer), LoVo (colorectal cancer), LoVo/Dx (colorectal cancer with multidrug resistance), HCV29T (bladder cancer), A498 (kidney cancer), A549 (lung cancer) and LNCaP (prostate cancer), as well as normal cell lines: BALB3T3 (normal mouse fibroblasts), MCF-10 (normal mammary gland cells) and HLMEC (normal human endothelium).
(§5) The cells in the phase of logarithmic growth were seeded on a 96-well plate (Sarsted) in quantity of 1 x 10^4 cells/well, and then incubated at 37°C, 5% CO2 for 24 hours. Subsequently, the tested compound was added in different concentrations and the incubation was carried out. […] For each assay the samples containing predetermined preparation concentrations were applied in triplicates. The experiments were repeated 3-5 times.
(§6) Sulphorhodamine B (SRB) is an anionic dye which binds to […] amino acids of cellular proteins. The determination of cytotoxic activity in the assay is based on the measurement of the amount of cellular proteins.
(§7) After the incubation is finished the attached cells are fixed with cold 50% TCA (4°C) at 4°C for 1 hour. Next, each well is washed with water and air dried, repeating this step 5 times.
(§8) 0.4% SRB solution (Sigma-Aldrich) dissolved in 1% acetic acid is added consecutively to each well and the staining is carried out for 30 minutes. The unbound dye is removed and the cells are washed 4 times with 1% acetic acid. Next, the plate is air dried for about 5 minutes.
(§9) The bound dye is dissolved by adding 10 mM Tris-base to each well and then OD is determined for wavelength 540 nm (Multiscan RC photometer, Labsystes, Helsinki).

[2] = test system: MCF-10 (normal mammary gland cells); assay: Cytotoxic activity against normal cells, SRB test; type: cell-based
Experimental: as §1, §2, §3, §4, §5, §6, §7, §8, §9

[3] = test system: Balb/3T3 (normal mouse fibroblasts); assay: Cytotoxic activity against normal cells, SRB test; type: cell-based; settings: Balb/3T3, 72-hour culture
Experimental: as §1, §2, §3, §4, §5, §6, §7, §8, §9

HCV29T (bladder cancer) = assay: Anti-proliferative activity, SRB test; type: cell-based, human; settings: 72-hour culture
Source text: (§10) 4.1. Anti-proliferative activity evaluation using the SRB test [Skehan et al., J. Natl. Cancer Inst., 82: 1107-1112, 1990] against human cancer cell lines with diverse tissue origins and determination of the IC50 concentration: • a) colorectal cancer LoVo, • b) colorectal cancer LoVo/DX (with multidrug resistance), • c) breast cancer MCF-7, • d) prostate cancer LNCaP, • e) bladder cancer HCV29T, • f) kidney cancer A498, • g) lung cancer A549
as §3, §4, §5, §6, §7, §8, §9

Lovo (colorectal cancer) = assay: Anti-proliferative activity, SRB test; type: cell-based, human; settings: 72-hour culture
Source text: as §10, §3, §4, §5, §6, §7, §8, §9

MCF-7 (breast cancer) = assay: Anti-proliferative activity, SRB test; type: cell-based, human
Source text: as §10, §3, §4, §5, §6, §7, §8, §9

[4] = test system: Lovo/Dx (colorectal cancer with multidrug resistance); assay: Anti-proliferative activity, SRB test; type: cell-based, human; settings: 72-hour culture
Source text: as §10, §3, §4, §5, §6, §7, §8, §9

A498 (kidney cancer) = assay: Anti-proliferative activity, SRB test; type: cell-based, human; settings: A498, 72-hour culture
Source text: as §10, §3, §4, §5, §6, §7, §8, §9

LNCaP (prostate cancer) = assay: Anti-proliferative activity, SRB test; type: cell-based, human; settings: 72-hour culture
Source text: as §10, §3, §4, §5, §6, §7, §8, §9

A549 (lung cancer) = assay: Anti-proliferative activity, SRB test; type: cell-based, human; settings: A549, 72-hour culture
Source text: as §10, §3, §4, §5, §6, §7, §8, §9

[5] = test system: HL-60 (promyelocytic leukemia); assay: Anti-proliferative activity, MTT test; type: cell-based, human; settings: HL-60, 72-hour culture
Experimental: (§11) 4.2. Anti-proliferative activity evaluation using the MTT test [Marcinkowska et al.: J. Steroid Biochem. Mol. 76: 71-78, 1998] against human cancer cell lines with diverse tissue origins and determination of the IC50 concentration: • a) promyelocytic leukemia HL-60, • b) promyelocytic leukemia HL-60/MX2 (with multidrug resistance)
as §3, §4, §5
(§12) The method involves a measurement of cell number increase inhibition utilizing the redox activity of mitochondria. The determination of biological activity with the MTT (3-(4,5-dimethylthiazol-2-yl)-2,5-diphenyltetrazolium bromide) assay is based on the assumption that reduction of the dye occurs only in viable cells. As a result of mitochondrial dehydrogenase activity the water-soluble tetrazolium salt (thiazolyl blue […] - MTT) is converted to water-insoluble formazan crystals. The quantity of the formed formazan crystals is proportional to the number of cells.
(§13) 3-4 hours before the end of cell incubation 20 µl of MTT solution (5 mg/ml) was added to each well. Next, 80 µl of dissolving mixture (with the following composition: 225 ml DMF (POCh), 67.5 g SDS (Sigma-Aldrich), 275 ml distilled H2O) was added. After 24 hours, formazan crystals were dissolved and OD of the samples was measured for wavelength 570 nm (Multiskan PC photometer, Labsystem, Helsinki).

[6] = test system: HL-60 MX2 (promyelocytic leukemia with multidrug resistance); assay: Anti-proliferative activity, MTT test; type: cell-based, human
Experimental: as §11, §3, §4, §5, §12, §13

[7] = target: T1, pig kidney microsomal leucyl aminopeptidase, Type IV-S (Sus scrofa, UniProt P15145); assay: Leucyl aminopeptidase inhibition (L-leucine p-nitroanilide substrate, absorbance 405 nm); type: biochemical; settings: pre-incubation 30 minutes at 37 °C, pH 8.5; IC50 by linear regression
T1 construct: pig kidney microsomal leucyl aminopeptidase, Type IV-S (Sigma-Aldrich) 3.5 mg of protein/ml; purchased Sigma-Aldrich; host or cells: pig kidney (microsomal fraction)
T1 sequence (P15145 1-963): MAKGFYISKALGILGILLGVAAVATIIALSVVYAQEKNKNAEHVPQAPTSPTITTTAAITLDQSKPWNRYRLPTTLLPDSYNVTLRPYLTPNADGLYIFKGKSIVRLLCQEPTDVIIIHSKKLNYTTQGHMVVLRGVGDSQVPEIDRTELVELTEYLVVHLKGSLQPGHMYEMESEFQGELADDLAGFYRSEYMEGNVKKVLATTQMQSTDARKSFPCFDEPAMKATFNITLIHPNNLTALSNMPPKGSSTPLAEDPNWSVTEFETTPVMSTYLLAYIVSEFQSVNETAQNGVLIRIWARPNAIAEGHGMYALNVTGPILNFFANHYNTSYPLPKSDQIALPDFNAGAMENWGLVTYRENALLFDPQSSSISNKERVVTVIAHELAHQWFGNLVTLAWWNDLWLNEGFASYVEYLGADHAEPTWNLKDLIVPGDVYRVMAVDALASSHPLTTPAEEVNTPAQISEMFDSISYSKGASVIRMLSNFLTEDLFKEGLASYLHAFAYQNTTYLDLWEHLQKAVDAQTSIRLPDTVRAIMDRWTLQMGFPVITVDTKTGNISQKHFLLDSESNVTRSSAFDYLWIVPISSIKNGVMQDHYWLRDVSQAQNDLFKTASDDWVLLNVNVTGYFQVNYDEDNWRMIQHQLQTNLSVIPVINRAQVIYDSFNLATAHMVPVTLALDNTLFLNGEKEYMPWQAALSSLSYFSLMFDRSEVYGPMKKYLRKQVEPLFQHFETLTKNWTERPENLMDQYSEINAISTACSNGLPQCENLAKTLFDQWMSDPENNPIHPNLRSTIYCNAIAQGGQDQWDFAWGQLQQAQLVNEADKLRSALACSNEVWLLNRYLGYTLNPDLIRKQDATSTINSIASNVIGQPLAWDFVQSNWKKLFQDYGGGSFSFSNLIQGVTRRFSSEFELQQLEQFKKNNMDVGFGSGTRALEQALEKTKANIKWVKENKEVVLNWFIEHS
Experimental: Leucyl aminopeptidase inhibition according to Cahan R., Hetzroni E., Nisnevitch M., Nitzan Y.: Purification and Identification of a Novel Leucine Aminopeptidase from Bacillus Thuringiensis israelensis. Curr. Microbial (2007) 55: 413-419.
• 1. Enzyme: pig kidney microsomal leucyl aminopeptidase, Type IV-S (Sigma-Aldrich) 3.5 mg of protein/ml, 28 U/mg of protein; diluted with 0.02M Tris-HCl + 0.5 mM CaCl2 buffer pH=8.5 until activity 0.01225U achieved • 2. Substrate: L-leucine p-nitroanilide: 4.2 mg / 269 µl DMSO; solution diluted 1:19 with 0.02 M Tris-HCl buffer, pH = 8.5 + 0.5 mM CaCl2 • 3. 0.02 M Tris-HCl buffer, pH = 8.5 + 0.5 mM CaCl2 • 4. DMSO, inhibitor solution in DMSO
5 µl of leucyl aminopeptidase ([…]), 70 µl of Tris, 5 µl of inhibitor solution in different concentrations (in DMSO) were added to the wells of a microtitration plate, followed by pre-incubation for 30 minutes at 37 °C. Next, 20µl of diluted L-leucine p-nitroanilide solution was added, whereupon the reaction mixture was incubated for 20 minutes at 37 °C, with measurement of absorbance changes for wavelength 405 nm (Fluorostar, Omega, BMG Labtech). The control sample for the enzyme contained analogous components, while instead of the inhibitor solution DMSO (5 µl) was added.
For each inhibitor concentration the percentage inhibition was calculated. The inhibitor concentration required for 50% of enzyme activity inhibition (IC50) was calculated based on linear regression data between the percentage inhibition and the concentration for a given inhibitor.

[8] = Homo sapiens, MCF10, MCF-10, 72-hour culture, read-out: IC50
[9] = Homo sapiens, MCF7, MCF-7, 72-hour culture, read-out: IC50
[10] = Homo sapiens, HL60/MX2, HL-60 MX2, 72-hour culture, read-out: IC50

Row | Structure (SMILES) | IC50 ([1]; Homo sapiens, read-out: IC50) | IC50 [2, 8] | IC50 ([3]; Mus musculus, read-out: IC50) | IC50 (HCV29T (bladder cancer); Homo sapiens, read-out: IC50) | IC50 (Lovo (colorectal cancer); Homo sapiens, read-out: IC50) | IC50 (MCF-7 (breast cancer); [9]) | IC50 ([4]; Homo sapiens, read-out: IC50) | IC50 (A498 (kidney cancer); Homo sapiens, read-out: IC50) | IC50 (LNCaP (prostate cancer); Homo sapiens, read-out: IC50) | IC50 (A549 (lung cancer); Homo sapiens, read-out: IC50) | IC50 [7] | IC50 ([5]; Homo sapiens, read-out: IC50) | IC50 [6, 10] | further results
1 | N.N.[Cl][Pt][Cl] [Cisplatin, reference compound] | – | – | – | – | – | – | – | – | – | – | – | – | – | IC50 [1]: 2.6 ± 0.3 µg/mL; IC50 ([2]; MCF-10, 72-hour culture): 0.7 µg/mL; IC50 [3]: 2.4 ± 0.3 µg/mL; IC50 (HCV29T (bladder cancer)): 2.7 ± 0.6 µg/mL; IC50 (Lovo (colorectal cancer)): 2.5 ± 1.3 µg/mL; IC50 (MCF-7 (breast cancer); MCF-7, 72-hour culture): 3.6 ± 0.6 µg/mL; IC50 [4]: 3.0 ± 0.7 µg/mL; IC50 (A498 (kidney cancer)): 2.8 ± 0.6 µg/mL; IC50 (LNCaP (prostate cancer)): 6.2 ± 1.3 µg/mL; IC50 (A549 (lung cancer)): 3.2 ± 1.0 µg/mL; IC50 [5]: 0.4 ± 0.1 µg/mL; IC50 ([6]; HL-60 MX2, 72-hour culture): 0.32 ± 0.02 µg/mL
2 | CCOC(=O)C1(C(=O)OCC)Cc2cc(OCc3ccccc3)cc(OCc3ccccc3)c2C=N1 [Compound 3, 6,8-dibenzyloxy-3,4-dihydroisoquinoline-3,3-dicarboxylic acid diethyl ester] | 3.3 ± 0.3 µg/mL (≈ 6.77 µM) | 15.3 µg/mL (≈ 31.4 µM) | 17.4 ± 7.9 µg/mL (≈ 35.6 µM) | 4.3 ± 0.7 µg/mL (≈ 8.82 µM) | 3.1 ± 0.3 µg/mL (≈ 6.36 µM) | 4.7 ± 0.8 µg/mL (≈ 9.64 µM) | 2 ± 0.8 µg/mL (≈ 4.1 µM) | 6.5 ± 1.5 µg/mL (≈ 13.3 µM) | 1.6 ± 0.3 µg/mL (≈ 3.28 µM) | 6.4 ± 2.3 µg/mL (≈ 13.1 µM) | 28 µM | 0.12 µg/mL (≈ 0.246 µM) | 1.3 µg/mL (≈ 2.67 µM) | –
3 | CCOC(=O)C1(C(=O)OCC)Cc2cc(O)cc(O)c2C=N1 [Compound 4, 6,8-dihydroxy-3,4-dihydroisoquinoline-3,3-dicarboxylic acid diethyl ester] | – | – | – | – | – | – | – | – | – | – | 1350 µM | – | – | –
4 | O=C(O)C1Cc2cc(O)c(O)c(O)c2C=N1 (stereo not drawn) [Compound 8, 6,7,8-trihydroxy-3,4-dihydroisoquinoline-3-carboxylic acid] | 33.4 ± 5 µg/mL (≈ 150 µM) | 18.9 ± 11.4 µg/mL (≈ 84.7 µM) | 52.5 ± 22.3 µg/mL (≈ 235 µM) | 28.7 ± 7.2 µg/mL (≈ 129 µM) | 33.6 ± 9.5 µg/mL (≈ 151 µM) | 18.9 ± 11.4 µg/mL (≈ 84.7 µM) | 30.1 ± 2.3 µg/mL (≈ 135 µM) | 40 ± 18.4 µg/mL (≈ 179 µM) | 30.9 ± 5.7 µg/mL (≈ 138 µM) | 44.3 ± 6.7 µg/mL (≈ 198 µM) | 3800 µM | 27.7 ± 4.3 µg/mL (≈ 124 µM) | 33.2 ± 2.7 µg/mL (≈ 149 µM) | –
